Assay [1] deals with senescent HEPG2 cells. The assay is described as follows: Senescence assay: viability of senescent HEPG2 cells. The class given is cell-based. Particulars: Homo sapiens, 24-72 hours incubation, viability by CellTiter-Glo or XTT, read-out: Absolute IC50 average HEPG2_SEN IC50. The method, boiled down:
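A549 and HEPG2 cells made senescent by sublethal chemotherapy (bleomycin, gemcitabine, doxorubicin or 5-fluorouridine) plus recovery, verified by low EdU and high SA-β-Gal. Ten-point duplicate dosing for 24-72 h; viability by CellTiter-Glo or XTT versus untreated cells; absolute IC50 from four-parameter Hill fit.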
A general note: Cellular ATP, detected with luciferase, serves as a proxy for viable cell number.

Assay [2] deals with T1, GPX4 (Homo sapiens, UniProt P36969).
T1 sequence (P36969 1-197): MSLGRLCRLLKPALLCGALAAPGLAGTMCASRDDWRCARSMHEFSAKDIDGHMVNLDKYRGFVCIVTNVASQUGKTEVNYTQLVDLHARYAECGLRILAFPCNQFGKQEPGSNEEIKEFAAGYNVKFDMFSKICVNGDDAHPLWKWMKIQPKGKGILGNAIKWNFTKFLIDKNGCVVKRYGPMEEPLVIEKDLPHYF
The assay is described as follows: Competitive binding to GPX4 in A549 cells with biotinylated analog, streptavidin pull-down. On the set-up: host or cells: A549. Particulars: 2 μM for 2 hours before 2 μM compound 21 for 5 hours. In kind it is cell-based. As to the method:
Binding of compounds 32 and 69 to the target protein GPX4 in cultured cells can be assessed by the use of biotinylated analogs such as compound 21 that retain their cellular activities. Cells or tissue simultaneously or sequentially exposed to compounds 32 and 69 and biotinylated analog 21 can be analyzed for exogenous biotinylated proteins and thereby enables the identification of cellular targets of compounds 32 and 69. The A549 cancer cell line (ATCC) was exposed to 2 μM of compounds 32 and 69 for 2 hours followed by the addition of 2 μM of compound 21 for 5 hours. Cells were collected and lysed by IGEPAL CA-630 and sodium dodecyl sulfate (SDS) in the presence of a protease inhibitor cocktail (4693132001, Roche). The soluble protein fraction was isolated and incubated with Streptavidin Mag Sepharose (28-9857-38, Cytiva) at 4° C. for 16 hours. The streptavidin-unbound fraction was collected allowing for the quantification of the proportion of GPX4 depleted by the biotinylated compound 21 relative to samples not treated with Streptavidin Mag Sepharose. Furthermore, biotinylated proteins were eluted from Streptavidin Mag Sepharose by head-denaturation in the presence of excess biotin (5 mM). […] Chemiluminescent following HRP substrate addition (34580, ThermoFisher) was detected by the ChemiDoc XRS+ System (Bio-Rad). […]

This is an account of results in patent US12485132B2, “GPX4 inhibitors and senolytic compounds and uses thereof” (Rubedo Life Sciences, Inc., priority 2023, dated 2025).

SMILES strings stand for the structures.

Regarding `C#CC(F)(F)[C@]1(O)CC[C@H]2[C@@H]3CCC4=CC(=NNC(=O)NC5CC5)CCC4=C3[C@H](c3ccc(C4CC4)cc3)C[C@@]21C` [Compound 32, N-cyclopropyl-2-((8S,11S,13S,14S,17S)-11-(4-cyclopropylphenyl)-17-(1,1-difluoroprop-2-yn-1-yl)-17-hydroxy-13-methyl-1,2,6,7,8,11,12,13,14,15,16,17-dodecahydro-3H-cyclopenta[a]phenanthren-3-ylidene)hydrazine-1-carboxamide], the IC50 in assay [1] lay within 0.1 to 10 nM. For the same molecule, the “effect of pre-treatment on compound 21 dependent depletion of GPX4 protein” value in assay [2] is “reduces the compound 21 dependent depletion of GPX4 protein”.

As a reminder, the IC50 is the concentration that inhibits the measured activity by half.
